Experimental data as given in ChEMBL document CHEMBL6074718, “Discovery and biological evaluation of potent 2-trifluoromethyl acrylamide warhead-containing inhibitors of protein disulfide isomerase” (Eur J Med Chem, 2025).
Activity calls are given as the source filed them. No cut-off for these calls is given here.

Tests used:
[1] = molecular target: T1, Protein disulfide-isomerase (Homo sapiens, UniProt P07237); experiment: Inhibition of recombinant PDI (unknown origin) preincubated for 1 hrs followed by bovine insulin addition and measured after 80 mins by absorbance based reductase assay
Target sequence in this assay (P07237 whole entry): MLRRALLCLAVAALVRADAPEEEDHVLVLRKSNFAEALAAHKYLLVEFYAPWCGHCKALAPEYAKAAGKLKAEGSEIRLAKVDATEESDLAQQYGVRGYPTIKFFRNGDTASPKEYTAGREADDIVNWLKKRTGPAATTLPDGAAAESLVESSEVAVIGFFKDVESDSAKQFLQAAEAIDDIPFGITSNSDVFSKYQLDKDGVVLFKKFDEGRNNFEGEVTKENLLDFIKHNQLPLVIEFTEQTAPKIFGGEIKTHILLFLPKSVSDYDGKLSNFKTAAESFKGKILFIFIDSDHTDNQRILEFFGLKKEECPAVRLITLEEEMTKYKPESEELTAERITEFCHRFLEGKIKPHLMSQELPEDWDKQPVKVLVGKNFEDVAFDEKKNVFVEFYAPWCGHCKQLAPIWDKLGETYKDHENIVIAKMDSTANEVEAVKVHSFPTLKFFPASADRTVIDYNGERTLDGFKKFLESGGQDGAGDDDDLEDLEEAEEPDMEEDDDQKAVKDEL

[2] = molecular target: T1, Protein disulfide-isomerase; experiment: Inhibition of recombinant PDI (unknown origin) at 0.2 uM preincubated for 1 hrs and measured after 10 fold dilution by absorbance based analysis
Target sequence in this assay (P07237 18-508 limits assumed): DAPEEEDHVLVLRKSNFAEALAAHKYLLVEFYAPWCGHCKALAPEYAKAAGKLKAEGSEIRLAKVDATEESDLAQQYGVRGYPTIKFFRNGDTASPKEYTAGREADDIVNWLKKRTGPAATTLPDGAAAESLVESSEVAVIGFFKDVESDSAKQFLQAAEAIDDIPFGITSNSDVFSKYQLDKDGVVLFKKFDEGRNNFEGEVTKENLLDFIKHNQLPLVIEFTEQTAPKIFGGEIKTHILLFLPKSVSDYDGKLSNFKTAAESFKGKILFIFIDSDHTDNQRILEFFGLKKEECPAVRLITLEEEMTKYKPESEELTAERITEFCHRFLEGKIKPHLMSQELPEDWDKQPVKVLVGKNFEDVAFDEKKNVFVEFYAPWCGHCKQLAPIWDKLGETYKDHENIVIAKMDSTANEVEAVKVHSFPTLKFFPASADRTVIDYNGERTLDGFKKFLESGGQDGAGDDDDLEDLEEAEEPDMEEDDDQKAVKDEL

[3] = molecular target: T2, Protein disulfide-isomerase A3 (Homo sapiens, UniProt P30101); experiment: Inhibition of recombinant PDIA3 (unknown origin) preincubated for 1 hrs followed by bovine insulin addition and measured after 80 mins by absorbance based reductase assay
T2 sequence (P30101 whole entry): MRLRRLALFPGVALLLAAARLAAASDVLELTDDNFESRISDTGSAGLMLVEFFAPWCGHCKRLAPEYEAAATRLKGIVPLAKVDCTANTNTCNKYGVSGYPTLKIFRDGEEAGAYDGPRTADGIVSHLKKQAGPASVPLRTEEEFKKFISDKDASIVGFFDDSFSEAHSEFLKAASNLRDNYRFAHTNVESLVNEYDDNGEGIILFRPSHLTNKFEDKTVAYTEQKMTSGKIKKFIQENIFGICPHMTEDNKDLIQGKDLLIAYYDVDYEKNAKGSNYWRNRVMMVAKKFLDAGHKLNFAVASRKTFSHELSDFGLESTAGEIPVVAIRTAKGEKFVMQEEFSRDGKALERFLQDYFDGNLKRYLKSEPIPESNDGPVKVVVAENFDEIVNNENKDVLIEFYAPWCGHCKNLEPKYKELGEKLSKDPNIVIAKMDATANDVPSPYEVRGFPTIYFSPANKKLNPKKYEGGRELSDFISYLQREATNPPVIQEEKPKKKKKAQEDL

[4] = molecular target: T3, Protein disulfide-isomerase A6 (Homo sapiens, UniProt Q15084); experiment: Inhibition of recombinant PDIA6 (unknown origin) preincubated for 1 hrs followed by bovine insulin addition and measured after 80 mins by absorbance based reductase assay
T3 sequence (Q15084 whole entry): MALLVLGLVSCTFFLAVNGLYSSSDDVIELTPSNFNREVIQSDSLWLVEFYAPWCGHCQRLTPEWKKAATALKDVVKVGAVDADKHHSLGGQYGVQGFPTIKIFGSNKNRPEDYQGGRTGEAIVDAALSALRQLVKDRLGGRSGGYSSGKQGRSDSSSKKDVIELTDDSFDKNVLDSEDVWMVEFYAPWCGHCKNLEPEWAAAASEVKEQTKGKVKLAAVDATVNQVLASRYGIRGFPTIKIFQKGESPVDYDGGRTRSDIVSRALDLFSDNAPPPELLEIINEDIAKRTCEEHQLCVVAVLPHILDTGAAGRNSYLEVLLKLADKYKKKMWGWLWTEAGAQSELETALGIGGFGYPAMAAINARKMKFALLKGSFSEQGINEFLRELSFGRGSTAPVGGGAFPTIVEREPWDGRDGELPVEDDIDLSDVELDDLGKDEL

[5] = Antiplatelet aggregation activity in human Platelet assessed as inhibition of U46619- induced aggregation preincubated for 3 mins followed by U46619 addition by turbidimetric aggregometry
[6] = Antiplatelet aggregation activity in human Platelet assessed as inhibition of collagen- induced aggregation preincubated for 3 mins followed by collagen addition by turbidimetric aggregometry
[7] = Antiplatelet aggregation activity in human Platelet assessed as inhibition of thrombin- induced aggregation preincubated for 3 mins followed by thrombin addition by turbidimetric aggregometry
[8] = molecular target: T1, Protein disulfide-isomerase; experiment: Inhibition of PDI in human Platelet assessed as reduction in […] activation by measuring decrease in PAC-1 binding at 5 uM preincubated for 3 mins followed by U46619 addition and measured after 5 mins by flow cytometric analysis; type: cell-based; settings: time 8.0 min
Target sequence in this assay (P07237 18-508 limits assumed): as the sequence (P07237 18-508 limits assumed) above

[9] = Antiplatelet aggregation activity in human Platelet assessed as reduction in U46619-induced secretion of p-selectin at 5 uM preincubated for 3 mins followed by U46619 addition and measured after 5 mins by flow cytometric analysis relative to control; type: functional; design: scale not given: the % may be the effect or the level left; settings: time 8 min
Blood [10] = experiment: Antithrombotic activity in citrated-human whole blood assessed as reduction in coverage area of thrombi on collagen-coated chamber at 5 uM incubated for 10 mins in presence of DiOC6(3) by fluorescence microscopic analysis relative to control; type: functional; design: scale not given: the % may be the effect or the level left
HUVEC = experiment: Cytotoxicity against HUVEC cells assessed as reduction in cell viability at 5 to 40 uM incubated for 24 hrs by MTT assay; type: toxicity, cell-based; settings: human, dose 5-40 µM
A549 = experiment: Antiproliferative activity against human A549 cells assessed as reduction in cell viability at 5 to 40 uM incubated for 24 hrs by MTT assay; type: functional, cell-based; settings: dose 5-40 µM
MDA-MB-231 = experiment: Antiproliferative activity against human MDA-MB-231 cells assessed as reduction in cell viability at 5 to 40 uM incubated for 24 hrs by MTT assay; type: functional, cell-based; settings: dose 5-40 µM
HepG2 = experiment: Antiproliferative activity against human HepG2 cells assessed as reduction in cell viability at 5 to 40 uM incubated for 24 hrs by MTT assay; type: functional, cell-based; settings: dose 5-40 µM
Platelet [11] = experiment: Antiplatelet aggregation activity in human Platelet assessed as inhibition of U46619- induced aggregation at 50 to 200 uM preincubated for 3 mins followed by U46619 addition by turbidimetric aggregometry; type: functional, cell-based; settings: dose 50-200 µM
Platelet [12] = experiment: Antiplatelet aggregation activity in human Platelet assessed as inhibition of thrombin- induced aggregation at 50 to 200 uM preincubated for 3 mins followed by thrombin addition by turbidimetric aggregometry; type: functional, cell-based; settings: dose 50-200 µM
Blood [13] = experiment: Antithrombotic activity in citrated-human whole blood assessed as reduction in coverage area of thrombi on collagen-coated chamber at 100 uM incubated for 10 mins in presence of DiOC6(3) by fluorescence microscopic analysis relative to control; type: functional; design: scale not given: the % may be the effect or the level left
Blood [14] = experiment: Antithrombotic activity in citrated-human whole blood assessed as reduction in coverage area of thrombi on collagen-coated chamber at 200 uM incubated for 10 mins in presence of DiOC6(3) by fluorescence microscopic analysis relative to control; type: functional; design: scale not given: the % may be the effect or the level left
[15] = molecular target: T1, Protein disulfide-isomerase; experiment: Irreversible inhibition of recombinant PDI (unknown origin) at 4 uM preincubated for 1 hrs and measured after 10 fold dilution by absorbance based analysis
Target sequence in this assay (P07237 18-508 limits assumed): as the sequence (P07237 18-508 limits assumed) above

IC50 [1] [µM]	Structure (SMILES)	further results
0.48	C=C(C(=O)Nc1ccc(C(=O)c2ccccc2)cc1)C(F)(F)F	inhibition [2]: Not active; Compound Exhibited Reversible Binding Mode With Pdi; IC50 [3]: 1.52 µM; IC50 [4]: 7.1 µM; IC50 [5]: 3.5 µM; IC50 [6]: 13 µM; IC50 [7]: 25.5 µM; inhibition [8]: Active; Activity [9]: 52%; Activity (Blood [10]): 36%; Activity (HUVEC): Non-toxic; Activity (A549): inactive; Activity (MDA-MB-231): inactive; Activity (HepG2): inactive
1.21	C=C(C(=O)Nc1ccc(CN2CCOCC2)cc1)C(F)(F)F	–
3	C=C(C(=O)Nc1ccc(OC)c(OC)c1)C(F)(F)F	–
1.62	C=C(C(=O)Nc1ccc(OCC)c(OC)c1)C(F)(F)F	–
0.56	C=C(C(=O)Nc1ccc(Cc2ccccc2)cc1)C(F)(F)F	–
0.81	C=C(C(=O)Nc1ccc(OCc2ccccc2)c(OC)c1)C(F)(F)F	–
0.68	C=C(C(=O)Nc1ccc(C(F)(F)F)cc1)C(F)(F)F	–
1.23	C=C(C(=O)Nc1ccc(OCCC)c(OC)c1)C(F)(F)F	–
0.84	C=C(C(=O)Nc1ccc(N(CC)CC)cc1)C(F)(F)F	–
1.63	C=C(C(=O)Nc1ccc(-c2ccccc2)cc1)C(F)(F)F	–
0.87	C=C(C(=O)Nc1ccc(C(C)(C)C)cc1)C(F)(F)F	–
2.91	C=C(C(=O)Nc1ccc2c(c1)OCO2)C(F)(F)F	–

More lines, now with the values behind:

Structure (SMILES)	IC50 [1] [µM]	further results
C=CC(=O)Nc1cc(OC)c(OC)cc1C(=O)OC	> 40	–
COC(=O)/C=C/C(=O)Nc1cc(OC)c(OC)cc1C(=O)OC	> 40	–
C=C(F)C(=O)Nc1cc(OC)c(OC)cc1C(=O)OC	> 40	–
CC(=O)Oc1ccccc1C(=O)O [ASPIRIN]	–	IC50 [6]: 74.5 µM; Activity (Platelet [11]): inactive; Activity (Platelet [12]): inactive; Activity (Blood [13]): 21%; Activity (Blood [14]): 46%
C=CS(=O)(=O)Nc1cc(OC)c(OC)cc1C(=O)OC	19.1	–
C=CS(=O)(=O)Oc1cc(OC)c(OC)cc1C(=O)OC	1.1	–
C=C(C(=O)Nc1cc(OC)c(OC)cc1C(=O)OC)C(F)(F)F	2.2	–
C=C(C(=O)Nc1cc(OC)c(OC)c(OC)c1)C(F)(F)F	0.58	–
C#CC(=O)Nc1cc(OC)c(OC)cc1C(=O)OC	1.6	–
COC(=O)c1cc(OC)c(OC)cc1NC(=O)CCl	> 40	–
COC(=O)c1cc(OC)c(OC)cc1NC(=O)C12CC1C2 (stereo not given)	> 40	–
C#CC(=O)N(c1ccc(OC)c(OC)c1)C(C(=O)NCC(=O)OCC)c1cccs1 (stereo not given)	12.4	inhibition [15]: Active; IC50 [3]: 28.1 µM; IC50 [4]: > 40 µM
COC(=O)c1cc(OC)c(OC)cc1NC(=O)C1CO1 (stereo not given)	> 40	–
